The results in this text go back to patent US5866573A, “Pyrazinone thrombin inhibitors” (Merck & Co., Inc., priority 1997, dated 1999).

In one test the target is human α-thrombin (Homo sapiens, UniProt P00734). Briefly: In vitro assay for determining proteinase inhibition: human α-thrombin. In kind it is biochemical. To be noted: inhibitory activity against human thrombin, class symbols of Tables 1-3; 25° C., pH 7.4. The procedure: Assays of human α-thrombin and human trypsin were performed by the methods substantially as described in Thrombosis Research, Issue No. 70, page 173 (1993) by S. D. Lewis et al.
The assays were carried out at 25° C. in 0.05M TRIS buffer pH 7.4, 0.15M NaCl, 0.1% PEG. Trypsin assays also contained 1 mM CaCl2. In assays wherein rates of hydrolysis of a p-nitroanilide (pna) substrate were determined, a Thermomax 96-well plate reader was used was used to measure (at 405 nm) the time dependent appearance of p-nitroaniline. sar-PR-pna was used to assay human α-thrombin (Km =125 μM) and bovine trypsin (Km =125 μM). p-Nitroanilide substrate concentration was determined from measurements of absorbance at 342 nm using an extinction coefficient of 8270 cm^-1 M^-1.
In certain studies with potent inhibitors (Ki <10 nM) where the degree of inhibition of thrombin was high, a more sensitive activity assay was employed. In this assay the rate of thrombin catalyzed hydrolysis of the fluorogenic substrate Z-GPR-afc (Km =27 μM) was determined from the increase in fluorescence at 500 nm (excitation at 400 nm) associated with production of 7-amino-4-trifluoromethyl coumarin. Concentrations of stock solutions of Z-GPR-afc were determined from measurements of absorbance at 380 nm of the 7-amino-4-trifluoromethyl coumarin produced upon complete hydrolysis of an aliquot of the stock solution by thrombin.
Activity assays were performed by diluting a stock solution of substrate at least tenfold to a final concentration ≤0.1 Km into a solution containing enzyme or enzyme equilibrated with inhibitor. Times required to achieve equilibration between enzyme and inhibitor were determined in control experiments. Initial velocities of product formation in the absence (Vo) or presence of inhibitor (Vi) were measured. […]

In another test the test system is thrombotic occlusion. Briefly: In vivo rat ferric chloride assay to measure thrombotic occlusions. Details: species or system Male Sprague-Dawley rats. To be noted: 10 μg/kg/min i.v. infusion from 60 min before 35% FeCl3 and 90 min after, 6 rats. How it is done: Studies of 3 (2-Phenylethylarnino)-6-methyl-1-(2-amino-6-following rat ferric chloride assay substantially as described in Thrombosis Research, No. 60, page 269(1990) by Kurtz et al were used to determine in vivo activity of the thrombin inhibitors of the invention. Male Sprague-Dawley rats (b)ody weights 200-350 grams) were anesthetized with dial-urethane solution (0.1 ml/100 gm body weight i.p.), and a lateral tail vein was cannulated with a 23 gauge needle connected to a 12 inch length of PE50 tubing. The tubing was attached to a 3-way valve by a tubing adapter. Saline (control) or test compound, as appropriate, was administered via the tail vein catheter. A tracheostomy was performed with a 0.75 inch length of PE205 tubing. The right carotid artery is exposed and a 1.3 mm diameter Doppler flow probe was placed on the vessel. Body temperature was maintained at 37° C. using a heat lamp.
6 rats were randomized to continuous intravenous infusions of saline or test compound administered via the tail vein. Test compound was administered at a rate of 10 μg/kg/min. Treatment infusions were initiated 60 min before the placement of a 3 mm square piece of Whatman No. 1 filter paper saturated with 35% FeCl3 onto the exposed carotid artery distal to the flow probe. […] Time to occlusion was defined as the time from application of FeCl3 to thrombotic occlusion of the vessel.

As for `Cc1nc(N)ccc1CNC(=O)Cn1c(C)cnc(NC(C)(C)Cc2ccccc2)c1=O` [PhCH2 C(CH3)2], the Ki – broadly, a dissociation constant, usually derived from enzyme kinetics or from competition with a known ligand – on human α-thrombin was at least 1 nM. `CCNC(=O)COc1ccc(Cl)cc1CNC(=O)Cn1c(C)cnc(NC(C)(C)C)c1=O` [t-C4 H9] came in with a Ki on human α-thrombin of at least 1 nM. `Cc1nc(N)ccc1CNC(=O)Cn1c(C)cnc(NCCc2ccccc2)c1=O` [test compound]: in the test with thrombotic occlusion, the “efficacy in rat ferric chloride assay” value is listed as “fully efficacious” and the “rats showing evidence of thrombotic occlusion” value is listed as “None of the rats treated with the test compound showed evidence of thrombotic occlusion”. At human α-thrombin, `CCNC(=O)COc1ccccc1CNC(=O)Cn1c(C)cnc(NCCc2ccccc2)c1=O` [H, NHC2 H5] gave a Ki below 1 nM.
